Assay results taken from patent US5939403A, “Keratan sulfate oligosaccharide fraction and pharmaceutical containing the same” (Seikagaku Corporation, priority 1994, dated 1999).
Structures can show the parent of a compound that is named as a salt.

Key:
MRL-lpr/lpr mice = test: Repeated intramuscular administration for 28 days in MRL mice (submandibular lymph node weight); assay type: in vivo
Description: The effect of the keratan sulfate oligosaccharide was examined on MRL mice which are autoimmune disease model mice.
The PBS solution of the purified keratan sulfate disaccharide (III) which was prepared in Example 1 described above at a dose of 1 mg/kg, 5 mg/kg, or 25 mg/kg weight (hereinafter referred to as the 1 mg/kg administered group, the 5 mg/kg administered group, and the 25 mg/kg administered group, respectively), and PBS as the control (hereinafter sometimes referred to as the control group) was intramuscularly injected, respectively, to the femoral region of MRL-lpr/lpr mice seven times a week for four weeks. After that, the mice were subjected to anatomization, and the weight of submandibular lymph nodes was determined to obtain the average weight. In each group, six mice were used. Further, in the figure, * represents that it has the significant difference with p<0.05 (wherein "p" means a level of significance by the Bonferroni multiple comparative test).

lymphocytes = test: Cell differentiation induction: lymphocyte surface antigen of lymph node; assay type: in vivo, MRL-lpr/lpr mice; conditions: 10 mg/kg i.m., eight weeks; vs control, 2.5 and 5 mg/kg
Description: The PBS solution of the purified keratan sulfate disaccharide (III) which was prepared in Example 1 described above at a dose of 2.5 mg/kg, 5 mg/kg, or 10 mg/kg weight (hereinafter referred to as the 2.5 mg/kg administered group, the 5 mg/kg administered group, and the 10 mg/kg administered group, respectively), and PBS as the control (hereinafter sometimes referred to as the control group) was intramuscularly injected, respectively, to the femoral region of MRL-lpr/lpr mice seven times a week for eight weeks. After that, the mice were subjected to anatomization, and the lymph nodes were minced on a cell strainer (Falcon 2350) to prepare the lymphocyte. The lymphocyte prepared of each group was subjected to the double immune staining with the anti-CD3 antibody (Seikagaku Corporation) and the anti-CD4 antibody (Pharminjen), that with the anti-CD3 antibody and the anti-CD8a antibody (Pharminjen), and that with the anti-CD3 antibody and the anti-B220 antibody (Pharminjen), respectively. The CD3, CD4, and CDBa are cell surface antigens which are expressed on T cells, and the B220 is that expressed on B cells. And it is known that no expression of these cell surface antigens is observed on null lymphocytes.
The proportion (%) of the CD3 and CD4 positive cells (hereinafter sometimes referred to as "the CD3+CD4+cells"; mainly helper T cells) to all the lymphocytes and the standard errors are shown in FIG. 19, that of the CD3 and CD8a positive cells (hereinafter sometimes referred to as "the CD3+CD8a+cells"; mainly suppressor T cells and cytotoxic T cells) and the standard errors are shown in FIG. 20, and that of the CD3 and B220 positive cells (hereinafter sometimes referred to as "the CD3+B220+cells";abnormal T cells having the surface antigens of B cells) and the standard errors are shown in FIG. 21. In the figures, * represents that it has the significant difference with p<0.05 (wherein "p" means a level of significance by the Ryan multiple comparative test). In each group, seven mice were used.

submandibular lymph node = test: Apoptosis induction: TdT-mediated nick end labeling of submandibular lymph node; assay type: in vivo, MRL-lpr/lpr mice; conditions: four weeks
Description: The PBS solution of the purified keratan sulfate disaccharide (III) which was prepared in Example 1 described above at a dose of 1 mg/kg, 5 mg/kg, or 25 mg/kg weight (hereinafter referred to as the 1 mg/kg administered group, the 5 mg/kg administered group, and the 25 mg/kg administered group, respectively), and PBS as the control (hereinafter sometimes referred to as the control group) was intramuscularly injected, respectively, to the femoral region of MRL-lpr/lpr mice seven times a week for four weeks. After that, the mice were subjected to anatomization to prepare the section specimens of submandibular lymph node (stained by the method of Gavrieli et al.; Terminal deoxynucleotidyl transferase (TdT)--mediated nick end labeling method; (J. Cell Biol., 119, 493-501 (1992))). In this staining method, apoptosis induced cells can be detected by detecting fragmented DNA ends. The specimens prepared was observed by a light microscope to determine the number of stained cells (the apoptosis induced cells; hereinafter sometimes referred to as the apoptosis cells) per unit area. In the figure, * and ** represent that they have the significant difference with p<0.05 and p<0.01, respectively (wherein "p" means a level of significance by the Bonferroni multiple comparative test). In each group, six mice were used.

CC(=O)N[C@H]1C(O)O[C@H](COS(=O)(=O)O)[C@@H](O[C@@H]2O[C@H](COS(=O)(=O)O)[C@H](O)[C@H](O)[C@H]2O)[C@@H]1O (stereo partly drawn) [keratan sulfate disaccharide (III), Gal(6S)β1-4GlcNAc(6S)]
weight increase in submandibular lymph nodes (FIG. 14) (MRL-lpr/lpr mice; 5 mg/kg i.m., p<0.05): a significant suppressive effect on the weight increase was observed compared with the control group
weight increase in submandibular lymph nodes (FIG. 14) (MRL-lpr/lpr mice; any dose (1, 5, 25 mg/kg i.m.)): a suppressive effect on the weight increase in submandibular lymph nodes was observed
proportion of CD3+B220+ cells (FIG. 21) (lymphocytes): decreased
proportion of CD3+CD4+ cells (FIG. 19) (lymphocytes): increased significantly
proportion of CD3+CD8a+ cells (FIG. 20) (lymphocytes): increased
number of the apoptosis cells (FIG. 22) (submandibular lymph node; 5 mg/kg i.m.): the number of the apoptosis cells increased significantly to the control group
number of the apoptosis cells (FIG. 22) (submandibular lymph node; any dose (1, 5, 25 mg/kg i.m.)): an increase in the number of the apoptosis cells was observed
